Measurements reported in patent US20250122183A1 (Pfizer Inc., priority 2023, published 2025).
Where two headings read alike, the source gives them in different places.

Tests used:
[1] = target: KAT7+JADE1+EAF6+ING5 4 protein complex (Homo sapiens (Human), UniProt O95251); test: KAT7 JADE1 assay (SAMDI-MS acetylation of H3 1-21 peptide); assay type: biochemical; conditions: replicate number in parentheses
KAT6A Full length enzyme = KAT6A Full length enzyme (Homo sapiens (Human), UniProt Q92794); test: KAT6A assay (SAMDI-MS acetylation of H3 1-21 peptide); assay type: biochemical; conditions: replicate number in parentheses
[2] = Morrison equation fit, read-out: KAT7 JADE1 Ki (nM) (replicate number)
[3] = Morrison equation fit, read-out: KAT6A Ki (nM) (replicate number)
[4] = read-out: KAT7 JADE1 Ki (nM) (replicate)
[5] = read-out: KAT6A Ki (nM) (replicate)

KAT6A Full length enzyme, sequence (Q92794 other isoform, or with tags, fused parts or gaps): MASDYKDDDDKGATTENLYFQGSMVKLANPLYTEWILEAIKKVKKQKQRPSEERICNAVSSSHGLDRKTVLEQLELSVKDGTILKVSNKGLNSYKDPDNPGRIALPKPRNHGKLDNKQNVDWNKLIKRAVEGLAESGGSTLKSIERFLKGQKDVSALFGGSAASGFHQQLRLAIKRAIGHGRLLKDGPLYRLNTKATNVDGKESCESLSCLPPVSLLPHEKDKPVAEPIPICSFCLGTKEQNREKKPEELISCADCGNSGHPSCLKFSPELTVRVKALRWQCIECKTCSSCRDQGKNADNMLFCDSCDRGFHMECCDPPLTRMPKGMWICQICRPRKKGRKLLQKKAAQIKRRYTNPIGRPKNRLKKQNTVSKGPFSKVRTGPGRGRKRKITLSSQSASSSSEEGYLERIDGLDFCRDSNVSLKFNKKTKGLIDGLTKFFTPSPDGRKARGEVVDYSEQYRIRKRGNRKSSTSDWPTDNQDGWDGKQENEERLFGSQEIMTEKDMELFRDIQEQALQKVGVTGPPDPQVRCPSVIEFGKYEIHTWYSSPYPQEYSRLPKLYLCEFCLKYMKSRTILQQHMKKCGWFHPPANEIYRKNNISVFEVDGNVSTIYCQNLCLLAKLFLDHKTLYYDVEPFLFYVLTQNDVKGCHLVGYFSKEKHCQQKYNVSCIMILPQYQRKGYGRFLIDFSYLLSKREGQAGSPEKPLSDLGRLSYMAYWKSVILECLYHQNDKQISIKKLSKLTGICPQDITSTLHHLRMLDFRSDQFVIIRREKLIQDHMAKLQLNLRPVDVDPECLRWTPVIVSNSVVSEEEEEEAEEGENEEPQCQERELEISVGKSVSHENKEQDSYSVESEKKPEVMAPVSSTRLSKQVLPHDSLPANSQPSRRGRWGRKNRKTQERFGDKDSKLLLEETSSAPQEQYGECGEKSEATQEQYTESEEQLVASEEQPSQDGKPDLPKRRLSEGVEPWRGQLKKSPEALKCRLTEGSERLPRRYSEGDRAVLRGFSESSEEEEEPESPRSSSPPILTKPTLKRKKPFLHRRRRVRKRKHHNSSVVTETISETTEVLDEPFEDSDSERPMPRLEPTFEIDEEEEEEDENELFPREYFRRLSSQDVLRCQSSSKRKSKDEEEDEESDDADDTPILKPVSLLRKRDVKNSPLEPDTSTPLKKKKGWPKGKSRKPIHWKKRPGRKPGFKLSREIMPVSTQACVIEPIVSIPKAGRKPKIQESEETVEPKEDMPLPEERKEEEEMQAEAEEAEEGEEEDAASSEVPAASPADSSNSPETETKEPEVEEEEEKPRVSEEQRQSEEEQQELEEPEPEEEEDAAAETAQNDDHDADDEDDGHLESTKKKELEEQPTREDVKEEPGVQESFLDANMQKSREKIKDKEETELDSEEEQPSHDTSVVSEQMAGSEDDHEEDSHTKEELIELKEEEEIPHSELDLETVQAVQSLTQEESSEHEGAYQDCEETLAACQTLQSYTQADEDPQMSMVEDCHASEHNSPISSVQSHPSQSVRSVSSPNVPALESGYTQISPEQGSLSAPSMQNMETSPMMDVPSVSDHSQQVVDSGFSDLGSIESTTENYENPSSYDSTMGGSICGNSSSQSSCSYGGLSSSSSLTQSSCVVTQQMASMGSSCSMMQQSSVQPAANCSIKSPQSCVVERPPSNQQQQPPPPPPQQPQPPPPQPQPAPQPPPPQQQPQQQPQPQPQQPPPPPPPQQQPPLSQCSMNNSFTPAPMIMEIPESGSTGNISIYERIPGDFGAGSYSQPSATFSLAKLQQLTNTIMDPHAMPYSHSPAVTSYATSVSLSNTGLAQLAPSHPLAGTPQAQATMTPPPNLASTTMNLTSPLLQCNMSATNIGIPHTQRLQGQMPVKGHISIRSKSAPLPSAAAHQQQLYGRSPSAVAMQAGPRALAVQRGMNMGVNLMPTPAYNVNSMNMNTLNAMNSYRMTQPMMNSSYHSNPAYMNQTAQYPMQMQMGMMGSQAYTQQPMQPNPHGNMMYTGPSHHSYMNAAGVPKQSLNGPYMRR

Row | Compound | Ki [1, 2] [nM] | Ki (KAT6A Full length enzyme; [3]) [nM] | Ki [1, 4] [nM] | Ki (KAT6A Full length enzyme; [5]) [nM]
1 | CCc1cc(Nc2cc3onc(NS(=O)(=O)c4c(OC)cc(-c5cn(C)cn5)cc4OC)c3cc2OC)[nH]n1 [Example 238, N-{6-[(3-ethyl-1H-pyrazol-5-yl)amino]-5-methoxy-1,2-benzoxazol-3-yl}-2,6-dimethoxy-4-(1-methyl-1H-imidazol-4-yl)benzene-1-sulfonamide] | 12.7 | 1.2 |  | 
2 | COc1cc2c(NS(=O)(=O)c3c(OC)cccc3OC)noc2cc1Nc1cc(C(F)(F)F)n[nH]1 [Example 93, 2,6-dimethoxy-N-(5-methoxy-6-{[3-(trifluoromethyl)-1H-pyrazol-5-yl]amino}-1,2-benzoxazol-3-yl)benzene-1-sulfonamide] | 729 | 31.2 |  | 
3 | COc1cc2c(NS(=O)(=O)c3c(OC)cccc3OC)noc2cc1Nc1cc(C(=O)O)n[nH]1 [Example 54, 5-({3-[(2,6-dimethoxybenzene-1-sulfonyl)amino]-5-methoxy-1,2-benzoxazol-6-yl}amino)-1H-pyrazole-3-carboxylic acid] | > 2340 | 2 |  | 
4 | COc1cc2c(NS(=O)(=O)c3c(OC)cc(CN4CCCC4(C)C)cc3OC)noc2cc1Nc1cc(C2CC2)n[nH]1 [Example 206, N-{6-[(3-cyclopropyl-1H-pyrazol-5-yl)amino]-5-methoxy-1,2-benzoxazol-3-yl}-4-[(2,2-dimethylpyrrolidin-1-yl)methyl]-2,6-dimethoxybenzene-1-sulfonamide] | 28.8 | 4.4 |  | 
5 | N-{6-[(3-cyclopropyl-1 H-pyrazol-5-yl)amino]-5-methoxy-1,2-benzoxazol-3-yl}-4-(4,4-difluoro-1-methylpiperidin-3-yl)-2,6-dimethoxybenzene-1-sulfonamide [Example 176] | 2.7 | 1 |  | 
6 | COc1cc2c(NS(=O)(=O)c3c(OC)cc(-c4ncc5c(n4)CN(C)CC5)cc3OC)noc2cc1Nc1cc(C2CC2)n[nH]1 [Example 225, N-{6-[(3-cyclopropyl-1 H-pyrazol-5-yl)amino]-5-methoxy-1,2-benzoxazol-3-yl}-2,6-dimethoxy-4-(7-methyl-5,6,7,8-tetrahydropyrido[3,4-d]pyrimidin-2-yl)benzene-1-sulfonamide] | 7 | 0.6 |  | 
7 | COc1cc2c(NS(=O)(=O)c3c(OC)cc(C4CCCN([C@@H]5CCOC5)C4)cc3OC)noc2cc1Nc1cc(C2CC2)n[nH]1 (single isomer, unassigned) [Example 159] | 7 | 1.1 |  | 
8 | COc1cc2c(NS(=O)(=O)c3c(OC)cc(C4CN(C)CC(F)(F)C4)cc3OC)noc2cc1Nc1cc(C2CC2)[nH]n1 (single isomer, unassigned) [Example 228, N-{6-[(5-cyclopropyl-1 H-pyrazol-3-yl)amino]-5-methoxy-1,2-benzoxazol-3-yl}-4-(5,5-difluoro-1-methylpiperidin-3-yl)-2,6-dimethoxybenzene-1-sulfonamide] | 6.2 | 0.8 |  | 
9 | COc1cc2c(NS(=O)(=O)c3c(OC)cccc3OC)noc2cc1Nc1[nH]nc(C)c1C(N)=O [Example 57, 5-({3-[(2,6-dimethoxybenzene-1-sulfonyl)amino]-5-methoxy-1,2-benzoxazol-6-yl}amino)-3-methyl-1H-pyrazole-4-carboxamide] | > 2340 | 6.2 |  | 
10 | COc1cc2c(NS(=O)(=O)c3c(OC)cccc3OC)noc2cc1Nc1c(C(N)=O)c(C)nn1C [Example 58, 5-({3-[(2,6-dimethoxybenzene-1-sulfonyl)amino]-5-methoxy-1,2-benzoxazol-6-yl}amino)-1,3-dimethyl-1H-pyrazole-4-carboxamide] | > 12500 | 5.7 |  | 
11 | COc1cc2c(NS(=O)(=O)c3c(OC)cc(C4C[C@H](F)CN4C)cc3OC)noc2cc1Nc1cc(C2CC2)n[nH]1 (stereo partly drawn) [Example 181, N-{6-[(3-cyclopropyl-1 H-pyrazol-5-yl)amino]-5-methoxy-1,2-benzoxazol-3-yl}-4-[(4S)-4-fluoro-1-methylpyrrolidin-2-yl]-2,6-dimethoxybenzene-1-sulfonamide] | 6.2 | 2 |  | 
12 | COc1cc2c(NS(=O)(=O)c3c(OC)cc(C(=O)N4CCC[C@H](F)C4)cc3OC)noc2cc1Nc1cc(C2CC2)n[nH]1 [Example 261, N-{6-[(3-cyclopropyl-1H-pyrazol-5-yl)amino]-5-methoxy-1,2-benzoxazol-3-yl}-4-[(3S)-3-fluoropiperidine-1-carbonyl]-2,6-dimethoxybenzene-1-sulfonamide] |  |  | 6.7 | 1.1
13 | COc1cc2c(NS(=O)(=O)c3c(OC)cc(C4CC(F)CCN4C)cc3OC)noc2cc1Nc1cc(C2CC2)[nH]n1 (stereo not drawn) [Example 192, N-{6-[(5-cyclopropyl-1 H-pyrazol-3-yl)amino]-5-methoxy-1,2-benzoxazol-3-yl}-4-trans(4-fluoro-1-methylpiperidin-2-yl)-2,6-dimethoxybenzene-1-sulfonamide] | 22.2 | 2.4 |  | 
14 | COc1cc2c(NS(=O)(=O)c3c(OC)cc(C4CCCOC4)cc3OC)noc2cc1Nc1cc(C2CC2)n[nH]1 (single isomer, unassigned) [Example 268, N-{6-[(3-cyclopropyl-1 H-pyrazol-5-yl)amino]-5-methoxy-1,2-benzoxazol-3-yl}-2,6-dimethoxy-4-(oxan-3-yl)benzene-1-sulfonamide] |  |  | 8.8 | 1.2
15 | COc1cc2c(NS(=O)(=O)c3c(OC)cc(C4CCN(C)C4)cc3OC)noc2cc1Nc1cc(C2CC2)n[nH]1 (single isomer, unassigned) [Example 147, N-{6-[(3-cyclopropyl-1 H-pyrazol-5-yl)amino]-5-methoxy-1,2-benzoxazol-3-yl}-2,6-dimethoxy-4-(1-methylpyrrolidin-3-yl)benzene-1-sulfonamide] | 12.1 | 1.6 |  | 
16 | COc1cc2c(NS(=O)(=O)c3c(OC)cccc3OC)noc2cc1Nc1cc(C)nn1C [Example 38, N-{6-[(1,3-dimethyl-1H-pyrazol-5-yl)amino]-5-methoxy-1,2-benzoxazol-3-yl}-2,6-dimethoxybenzene-1-sulfonamide] | > 12500 | 60.4 |  | 
17 | COc1cc2c(NS(=O)(=O)c3c(OC)cc(CN4CCCC(F)(F)C4)cc3OC)noc2cc1Nc1cc(C2CC2)n[nH]1 [Example 199, N-{6-[(3-cyclopropyl-1H-pyrazol-5-yl)amino]-5-methoxy-1,2-benzoxazol-3-yl}-4-[(3,3-difluoropiperidin-1-yl)methyl]-2,6-dimethoxybenzene-1-sulfonamide] | 5.2 | 0.7 |  | 
18 | COc1cc2c(NS(=O)(=O)c3c(OC)cc(C4CCOC4)cc3OC)noc2cc1Nc1cc(C2CC2)n[nH]1 (single isomer, unassigned) [Example 266, N-{6-[(3-cyclopropyl-1H-pyrazol-5-yl)amino]-5-methoxy-1,2-benzoxazol-3-yl}-2,6-dimethoxy-4-(oxolan-3-yl)benzene-1-sulfonamide] |  |  | 13.6 | 1.6
19 | COc1cccc(OC)c1S(=O)(=O)Nc1noc2cc(NC3COC3)cc(OC)c12 [Example 11, 2,6-dimethoxy-N-{4-methoxy-6-[(oxetan-3-yl)amino]-1,2-benzoxazol-3-yl}benzene-1-sulfonamide] | > 2340 | 31.1 |  | 
20 | CCOc1cc(C)c(F)cc1S(=O)(=O)Nc1noc2cc(Nc3n[nH]cc3F)c(OC)cc12 [Example 139, 2-Ethoxy-5-fluoro-N-{6-[(4-fluoro-1 H-pyrazol-3-yl)amino]-5-methoxy-1,2-benzoxazol-3-yl}-4-methylbenzene-1-sulfonamide] | 128 | 0.1 |  | 
21 | COc1cc2c(NS(=O)(=O)c3c(OC)cc(N4C(=O)CCC4C)cc3OC)noc2cc1Nc1cc(C2CC2)n[nH]1 (single isomer, unassigned) [Example 245, N-{6-[(3-cyclopropyl-1 H-pyrazol-5-yl)amino]-5-methoxy-1,2-benzoxazol-3-yl}-2,6-dimethoxy-4-(2-methyl-5-oxopyrrolidin-1-yl)benzene-1-sulfonamide] | 3.6 | 0.7 |  | 
22 | COc1cc2c(NS(=O)(=O)c3c(OC)cc(-c4ccn(C)n4)cc3OC)noc2cc1Nc1cc(C2CC2C)n[nH]1 (single isomer, unassigned) [Example 241, 2,6-dimethoxy-N-(5-methoxy-6-{[3-(2-methylcyclopropyl)-1H-pyrazol-5-yl]amino}-1,2-benzoxazol-3-yl)-4-(1-methyl-1H-pyrazol-3-yl)benzene-1-sulfonamide] | 75.3 | 2.6 |  | 
23 | COc1cc2c(NS(=O)(=O)c3c(OC)cc(C(C)N4CCOCC4)cc3OC)noc2cc1Nc1cc(C2CC2)n[nH]1 (single isomer, unassigned) [Example 208, N-{6-[(3-cyclopropyl-1H-pyrazol-5-yl)amino]-5-methoxy-1,2-benzoxazol-3-yl}-2,6-dimethoxy-4-[1-(morpholin-4-yl)ethyl]benzene-1-sulfonamide] | 7.6 | 2.4 |  | 
24 | COc1cc2c(NS(=O)(=O)c3c(OC)cccc3OC)noc2cc1Nc1cc(C2CC2)nn1C [Example 48, N-{6-[(3-cyclopropyl-1-methyl-1H-pyrazol-5-yl)amino]-5-methoxy-1,2-benzoxazol-3-yl}-2,6-dimethoxybenzene-1-sulfonamide] | > 12500 |  |  | 
25 | COc1cc2c(NS(=O)(=O)c3c(OC)cc(C4CCCN(CC(F)(F)F)C4)cc3OC)noc2cc1Nc1cc(C2CC2)n[nH]1 (single isomer, unassigned) [Example 169, N-{6-[(3-cyclopropyl-1 H-pyrazol-5-yl)amino]-5-methoxy-1,2-benzoxazol-3-yl}-2,6-dimethoxy-4-[1-(2,2,2-trifluoroethyl)piperidin-3-yl]benzene-1-sulfonamide] |  | 0.5 |  | 
26 | COc1cc2c(NS(=O)(=O)c3c(OC)cc(C4CCCN(CC(F)(F)F)C4)cc3OC)noc2cc1Nc1cc(C2CC2)n[nH]1 (single isomer, unassigned) [Example 170, N-{6-[(3-cyclopropyl-1 H-pyrazol-5-yl)amino]-5-methoxy-1,2-benzoxazol-3-yl}-2,6-dimethoxy-4-[1-(2,2,2-trifluoroethyl)piperidin-3-yl]benzene-1-sulfonamide] |  | 0.4 |  | 
